{
  "source": "patent US9719127B2",
  "about": "“Dual inducible vectors and cell lines” (priority 2012, dated 2017)",
  "key": {"[1]": {"test_system": "X4-tropic viruses", "assay": "GGR cell G.Luc signal with X4-tropic viruses", "format": "cell-based, HIV", "conditions": "GGR cells, low endogenous CXCR4"}, "[2]": {"test_system": "CCR5-using HIV-1 isolate (live, replication-competent JR-CSF)"}},
  "data": [
    {"substance": "Maraviroc", "values": [
      {"measurement": "G.Luc signal with X4-tropic viruses under maraviroc", "setting": "[1]", "value": "resistant to maraviroc inhibition"},
      {"measurement": "Gaussia luciferase signal of CCR5-mediated infection in the presence of maraviroc", "setting": "[2]", "value": "reproducibly reduced"}
    ]}
  ]
}
